Results taken from patent US6841169B2, “Stabilizer for pharmacons” (Rijksuniversiteit Groningen, priority 2001, dated 2005).

Experiments:
[1] = Storage of sugar glasses at 20° C. at raised relative air humidity (deliquescence); format: physicochemical; settings: 45% relative air humidity
Source text: In practice, a sugar glass will never be completely anhydrous. This is for instance the consequence of uptake of water from the air. […] The extent of water uptake depends on the hygroscopicity of the material and of the relative degree of air humidity.

[2] = Freeze-drying at a sample temperature of −16° C. (cake formation); format: physicochemical; settings: sample temperature −16° C.
Protocol: This last was tested in experiments with trehalose and inulin. Freeze-drying was done at a sample temperature of −16° C. […] Accordingly, inulin can be freeze-dried under less stringent conditions.

alkaline phosphatase = settings: for Activity alkaline phosphatase after freeze-drying and 6 days at 0% RH and 60° C.: alkaline phosphatase to stabilizer 1 to 9, average of 4 independent experiments; for Activity alkaline phosphatase directly after freeze drying: alkaline phosphatase to stabilizer 1 to 9 by weight, average of 2 independent experiments
Protocol: Alkaline phosphatase with and without stabilizer was dissolved in a 0.05 M 2-amino-2-methyl-1,3-propanediol solution in water, pH 9.8. The concentration of alkaline phosphatase was 2.5 mg/mL in all cases. […] Trehalose and glucose were used as positive and negative control, respectively. The weight ratio of alkaline phosphatase to stabilizer was 1 to 9 in all cases. Of the solutions, 2 mL were transferred to glass sample vessels of a diameter of about 2 cm. The sample vessels were transferred to liquid nitrogen. After the solution had frozen completely, the sample vessels were transferred to a Christ freeze-drier, model Alpha 2-4, at a plate temperature of −30° C., followed by freeze-drying at a condenser temperature of −53° C. and a pressure of 0.220 mbar for 18 hours. Then, during 6 hours, the plate temperature and the pressure were gradually raised to 20° C. and 0.520 mbar, respectively. Thereafter the freeze-drying process was continued for 20 more hours.
Two series of experiments were carried out. In the first series, the samples were left to stand for 6 days at 0% relative humidity (RH) and 60° C., whereafter the activity of the protein was determined. In the second series of experiments, the samples were left to stand in an exsiccator above silica gel (0% RH) or in controlled-climate cabinets (45% and 60% RH) at 20° C. At different times, the activity of the protein was determined.
The activity of alkaline phosphatase was determined as follows. The freeze-dried samples were reconstituted with water. To 50 μl of the solution obtained, there were added 905 μL of a 0.05 M 2-amino-2-methyl-1,3-propanediol solution in water, pH 9.8, and 20 μL of a 100 mM MgCl2 solution in water. Next, 50 μL of a freshly prepared solution of 10 mg phosphatase substrate (para-nitrophenyl phosphate) per mL water were added. The mixture was vortexed and then incubated at 37° C. After 30 minutes, the reaction was stopped by addition of 5.0 mL of a 0.1 N solution of NaOH in water. The extinction of the solution obtained was measured at 405 nm. A calibration line was made using freshly prepared solutions of alkaline phosphatase in 0.05 M 2-amino-2-methyl-1,3-propanediol in water, pH 9.8, of known concentrations.

[3] = from scientific publications; cited from earlier work

| Structure (SMILES) | Behaviour of glass exposed to relative air humidity of 45% [1] | Cake obtained on freeze-drying [2] | Activity alkaline phosphatase after freeze-drying and 6 days at 0% RH and 60° C. (alkaline phosphatase) [%] | Activity alkaline phosphatase directly after freeze drying (alkaline phosphatase) [%] | Activity of the protein after 6 days of storage at 0% RH and 60° C. (in words) (alkaline phosphatase; freeze-dried samples) | Tg (glass transition temperature) [3] [°C] | Activity of the protein after 4 weeks at 45% RH (in words) (alkaline phosphatase; freeze-dried samples, 4 weeks, 45% RH, 20° C.) | Activity of alkaline phosphatase after 4 weeks at 45% RH (alkaline phosphatase; freeze-dried samples, 4 weeks, 45% RH, 20° C., FIG. II) [%] | Activity of the protein after 4 weeks at 60% RH (in words) (alkaline phosphatase; freeze-dried samples, 4 weeks, 60% RH, 20° C.) | Activity of alkaline phosphatase after four weeks at 60% RH (alkaline phosphatase; freeze-dried samples, 4 weeks, 60% RH, 20° C., FIG. III) [%] |
| --- | --- | --- | --- | --- | --- | --- | --- | --- | --- | --- |
| OC[C@H]1O[C@H](O[C@H]2O[C@H](CO)[C@@H](O)[C@H](O)[C@H]2O)[C@H](O)[C@@H](O)[C@@H]1O [Trehalose] | first deliquesced (that is, the Tg falls below 20° C.) and then crystallized | collapsed cake | −1.4 ± 2.8 | 95.9 ± 11.5 | gone completely | ~120 | – | – | – | – |
| O=C[C@H](O)[C@@H](O)[C@H](O)[C@H](O)CO [Glucose] | – | – | 0.8 ± 4.5 | 110.3 ± 10.6 | gone completely | – | substantial decrease of the activity | 57.9±3.1 | substantial decrease of the activity | 46.3±16.1 |
